Legend:
[1] = tested on: Rpd3-regulated genes (URS-URA3, INO1, IME2, CAR1, SPO13, TRK2); assay: RT-qPCR of Rpd3-regulated genes in yeast; assay type: cell-based, S. cerevisiae; conditions: for derepression of URS-URA3 in deletion strains: rpd3Δ, sin3Δ, ume6Δ, sin3Δ/ume6Δ
Protocol: After yeast cells reached OD600 nm ˜0.5 in 0.8-1 mL of YPD, they were grown for two more hours at room temperature before being centrifuged to remove supernatant and freezing pellets on dry ice. For compound treatments, yeast cells at OD600 nm˜0.5 in YPD were incubated at room temperature for two hours with DMSO (1-1.6%) or the desired compound (from 25 mM stock in 100% DMSO) in an 2 mL-tube for a final volume of 0.8 mL in YPD, before being centrifuged, washed and frozen as described above. Yeast cells were then harvested for RNA extraction using a RiboPure RNA Purification Kit (Invitrogen, cat #AM1926), which involves mechanical cell wall disruption, phenol extraction of the lysate, and RNA purification using glass fiber, and filter-based RNA purification columns. RNA concentration was measured for individually purified RNA samples using a NanoDrop spectrophotometer. A total of 1 μg RNA from each sample was used for reverse transcription following a published procedure [Choi, S. G. et al 2012].
The RT-qPCR protocol used in this study was described elsewhere [Choi et al 2012]. Culture, RNA extraction, and compound treatments for neuroblastoma SK-N-BE(2)-C cells are described below. Approximately 1 μg RNA per sample was used for reverse transcription. Using a thermocycler, RNA was denatured in the presence of 0.2 μg 18 mer oligo-dT by heating the plate at 65° C. for 10 min. The plate was then immediately cooled down on ice to anneal oligo-dT on the poly-A tail of mRNA. A master mix of AffinityScript Multiple Temperature Reverses Transcriptase (Agilent, cat #600107) was prepared following the manufacturer's protocol, and mixed with RNA samples previously annealed with the oligo-dT. The plate was incubated at 42° C. for 2 h to generate cDNAs from mRNA templates. The reverse transcriptase was then denatured by heating the plate at 70° C. for 15 min. The resulting cDNA was diluted (1:20) in sterile, ultra pure water (ddH2O), and stored at −20° C. until used for qPCR. To measure gene expression, the diluted cDNA was mixed with 5 μL PowerUp SYBR Green master mix (Applied Biosystems, cat #A25743), and the mix of primers (forward+reverse, see FIG. 31; 0.3 μM final concentration) for a total volume of 10 μL. Two technical replicates were generated per cDNA sample in the 384-well PCR plate (Applied Biosystems, cat #4343370). The plate was tightly sealed with optical adhesive film (Applied Biosystems, cat #4311971). Quantitative PCR was conducted with a QuantStudio real-time PCR system from Applied Biosystems, with the following settings: 50° C./2 min, 95° C./10 min, 96° C./15 s/40 cycles, and 60° C./30 s. Dissociation curves were checked for each PCR product, to assess the specificity of the PCR amplicons.
Expression of gene X normalized to the control gene expression=k*1.96^(Ct^Control^−Ct^Test^) • where k is an arbitrary multiplier (k=1000 in this study), 1.96 is the PCR amplification efficiency constant, Ct is the cycle threshold, CtControl is the Ct value for the housekeeping gene used as control (UBC6 in yeast [Teste et al 2009]; RPS11 in human cells [Zhan et al 2014], and CtTest is the Ct value for the tested gene. Replicates corresponding to DMSO treatments or WT yeast cells were averaged and other data points normalized using those DMSO or WT values as references (i.e. expression relative to DMSO or WT). TAF10 in yeast or SNRPD3 in human cells were used as genes not known for being regulated by an HDAC complex (HDAC-unrelated genes).

[2] = tested on: Rpd3-sensitive acid phosphatase activity; assay: Yeast acid phosphatase plate assay; assay type: cell-based, S. cerevisiae; conditions: phosphate-rich (high Pi) medium
Protocol: The acid phosphatase plate assay was implemented as previously described [To et al 1973, Loewith et al 2001], with minor modifications. Cells were grown on high Pi medium (see above) for 2 days, at 30° C. A staining solution containing 2 mg/mL of 1-naphtyl phosphate (Sigma, N5602) and 4 mg/mL fast blue B salt (Sigma, D9805) was then prepared in 50 mM sodium acetate buffer pH 4.0±0.1, and maintained at 50° C. for ˜30 min before being filtered. Meanwhile, a solution of 10 mg/mL (1% weight/volume) ultra pure low melting point (LMP) agarose (Invitrogen, 15517-022) was prepared in 50 mM sodium acetate buffer pH 4.0±0.1, by microwaving the suspension until complete dissolution of the powder. The volume of the agarose solution was checked and readjusted with 50 mM sodium acetate buffer pH 4.0±0.1. The agarose solution was then mixed with the filtered staining solution by vortexing briefly, and the resulting suspension was kept at 50° C. for ˜15 min. The solid agar plate on which cells grew for 2 days were then gently overlaid with the agarose-containing staining solution, allowing its gelification on top of the cells. A red coloring started to appear ˜2 min after covering cells with the solution.

Compound: C[C@@H](NC(=O)c1c(O)n2ccccc2nc1=O)c1ccccc1 [E6R, 4-hydroxy-2-oxo-N—((R)-1-phenylethyl)-3,4-dihydro-2H-pyrido[, 2-a]pyrimidine-3-carboxamide]
- expression at URS-URA3 compared to E6S ([1]; different doses): stronger induction of expression at URS-URA3

Compound: CC(/C=C/C(=O)NO)=C\[C@@H](C)C(=O)c1ccc(N(C)C)cc1 [TSA, trichostatin A]
- Rpd3-sensitive acid phosphatase activity [2]: induced
- effect on CAR1 and SPO13 expression ([1]; 250 μM): consistently derepressed
- effect on all Rpd3-regulated loci ([1]; FIG. 3I): activated all Rpd3-regulated loci
- derepression of URS-URA3 in deletion strains ([1]; 250 μM): no effect

Compound: CC(NC(=O)c1c(O)n2ccccc2nc1=O)c1ccccc1 (racemic) [E6]
- Rpd3-sensitive acid phosphatase activity [2]: opposite behavior
- increase of INO1 expression ([1]; 250 μM, relative to DMSO): ~150 fold
- derepression of URS-URA3 in deletion strains ([1]; 250 μM): drastically decreased

From patent publication US20240299393A1, “SMALL MOLECULE DISRUPTORS OF PROTEIN INTERACTIONS IN HISTONE DEACETYLASE COMPLEXES” (Dana-Farber Cancer Institute, Inc., priority 2021, published 2024)
